Experimental data published in PubChem BioAssay AID1259407 (Chemical Carcinogenesis Research Information System (CCRIS), 2018).
The source made the active and inactive calls. How the calls were made is not given here.

Test system: CCRIS mutagenicity, Ames/micronucleus/aberration tests
Experiment: CCRIS mutagenicity studies
[1] = Test System: AMES SALMONELLA TYPHIMURIUM, Strain/Indicator: TA98, Metabolic Activation: NONE, Method: STANDARD PLATE
[2] = Test System: AMES SALMONELLA TYPHIMURIUM, Strain/Indicator: TA98, Metabolic Activation: RAT, LIVER, S-9, AROCLOR 1254, Method: STANDARD PLATE
[3] = Test System: AMES SALMONELLA TYPHIMURIUM, Strain/Indicator: TA100, Metabolic Activation: NONE, Method: STANDARD PLATE
[4] = Test System: AMES SALMONELLA TYPHIMURIUM, Strain/Indicator: TA100, Metabolic Activation: RAT, LIVER, S-9, AROCLOR 1254, Method: STANDARD PLATE
[5] = Test System: AMES SALMONELLA TYPHIMURIUM, Strain/Indicator: TA98, Metabolic Activation: RAT, LIVER, S-9, PHENOBARBITAL AND 5,6-BENZOFLAVONE, Method: PREINCUBATION
[6] = Test System: AMES SALMONELLA TYPHIMURIUM, Strain/Indicator: TA100, Metabolic Activation: RAT, LIVER, S-9, PHENOBARBITAL AND 5,6-BENZOFLAVONE, Method: PREINCUBATION

Compound: Nc1ccc(/C=C/c2ccc(Cl)cc2)cc1
- mutagenic call (Test System: AMES SALMONELLA TYPHIMURIUM, Strain/Indicator: TA98(1,8-DNP6), Metabolic Activation: NONE, Method: STANDARD PLATE): inactive; negative
- mutagenic call (Test System: AMES SALMONELLA TYPHIMURIUM, Strain/Indicator: TA98(1,8-DNP6), Metabolic Activation: S-9, Method: STANDARD PLATE): active; positive
- mutagenic call [1]: inactive; negative
- mutagenic call [2]: active; positive
- mutagenic call (Test System: AMES SALMONELLA TYPHIMURIUM, Strain/Indicator: TA98, Metabolic Activation: S-9, Method: STANDARD PLATE): active; positive
- mutagenic call [3]: inactive; negative
- mutagenic call [4]: active; positive
- mutagenic call (Test System: AMES SALMONELLA TYPHIMURIUM, Strain/Indicator: TA100, Metabolic Activation: S-9, Method: STANDARD PLATE): active; positive

Compound: O=C1C(Cl)=C(Cl)C(=O)c2ccccc21
- mutagenic call (Test System: AMES SALMONELLA TYPHIMURIUM, Strain/Indicator: TA97, Metabolic Activation: NONE, Method: PREINCUBATION): inactive; negative
- mutagenic call (Test System: AMES SALMONELLA TYPHIMURIUM, Strain/Indicator: TA97, Metabolic Activation: RAT, LIVER, S-9, PHENOBARBITAL AND 5,6-BENZOFLAVONE, Method: PREINCUBATION): active; positive
- mutagenic call (Test System: AMES SALMONELLA TYPHIMURIUM, Strain/Indicator: TA98, Metabolic Activation: NONE, Method: PREINCUBATION): inactive; negative
- mutagenic call (Test System: AMES SALMONELLA TYPHIMURIUM, Strain/Indicator: TA98, Metabolic Activation: RAT LIVER S-9, PHENOBARBITAL AND BETA-NAPHTHOFLAVONE, Method: PREINCUBATION): inactive; negative
- mutagenic call [5]: inactive; negative
- mutagenic call (Test System: AMES SALMONELLA TYPHIMURIUM, Strain/Indicator: TA100, Metabolic Activation: RAT LIVER S-9, PHENOBARBITAL AND BETA-NAPHTHOFLAVONE, Method: PREINCUBATION): inactive; negative
- mutagenic call [6]: active; positive
- mutagenic call (Test System: AMES SALMONELLA TYPHIMURIUM, Strain/Indicator: TA102, Metabolic Activation: NONE, Method: PREINCUBATION): active; positive
- mutagenic call (Test System: AMES SALMONELLA TYPHIMURIUM, Strain/Indicator: TA102, Metabolic Activation: RAT, LIVER, S-9, PHENOBARBITAL AND 5,6-BENZOFLAVONE, Method: PREINCUBATION): active; positive
- mutagenic call (Test System: AMES SALMONELLA TYPHIMURIUM, Strain/Indicator: TA104, Metabolic Activation: NONE, Method: PREINCUBATION): active; positive
- mutagenic call (Test System: AMES SALMONELLA TYPHIMURIUM, Strain/Indicator: TA104, Metabolic Activation: RAT, LIVER, S-9, PHENOBARBITAL AND 5,6-BENZOFLAVONE, Method: PREINCUBATION): active; positive
- mutagenic call (Test System: AMES SALMONELLA TYPHIMURIUM, Strain/Indicator: TA1535, Metabolic Activation: NONE, Method: PREINCUBATION): inactive; negative
- mutagenic call (Test System: AMES SALMONELLA TYPHIMURIUM, Strain/Indicator: TA1535, Metabolic Activation: RAT LIVER S-9, PHENOBARBITAL AND BETA-NAPHTHOFLAVONE, Method: PREINCUBATION): inactive; negative
- mutagenic call (Test System: AMES SALMONELLA TYPHIMURIUM, Strain/Indicator: TA1535, Metabolic Activation: RAT, LIVER, S-9, PHENOBARBITAL AND 5,6-BENZOFLAVONE, Method: PREINCUBATION): inactive; negative
- mutagenic call (Test System: AMES SALMONELLA TYPHIMURIUM, Strain/Indicator: TA1537, Metabolic Activation: NONE, Method: PREINCUBATION): inactive; negative
- mutagenic call (Test System: AMES SALMONELLA TYPHIMURIUM, Strain/Indicator: TA1537, Metabolic Activation: RAT LIVER S-9, PHENOBARBITAL AND BETA-NAPHTHOFLAVONE, Method: PREINCUBATION): inactive; negative
- mutagenic call (Test System: AMES SALMONELLA TYPHIMURIUM, Strain/Indicator: TA1537, Metabolic Activation: RAT, LIVER, S-9, PHENOBARBITAL AND 5,6-BENZOFLAVONE, Method: PREINCUBATION): inactive; negative
- mutagenic call (Test System: AMES SALMONELLA TYPHIMURIUM, Strain/Indicator: TA1538, Metabolic Activation: NONE, Method: PREINCUBATION): inactive; negative
- mutagenic call (Test System: AMES SALMONELLA TYPHIMURIUM, Strain/Indicator: TA1538, Metabolic Activation: RAT LIVER S-9, PHENOBARBITAL AND BETA-NAPHTHOFLAVONE, Method: PREINCUBATION): inactive; negative
- mutagenic call (Test System: AMES SALMONELLA TYPHIMURIUM, Strain/Indicator: TA1538, Metabolic Activation: RAT, LIVER, S-9, PHENOBARBITAL AND 5,6-BENZOFLAVONE, Method: PREINCUBATION): inactive; negative
- mutagenic call (Test System: AMES SALMONELLA TYPHIMURIUM, Strain/Indicator: TA2637, Metabolic Activation: NONE, Method: PREINCUBATION): inactive; negative
- mutagenic call (Test System: AMES SALMONELLA TYPHIMURIUM, Strain/Indicator: TA2637, Metabolic Activation: RAT, LIVER, S-9, PHENOBARBITAL AND 5,6-BENZOFLAVONE, Method: PREINCUBATION): active; positive
- mutagenic call (Test System: E.COLI, Strain/Indicator: WP2UVRA, Metabolic Activation: NONE, Method: PREINCUBATION): inactive; negative
- mutagenic call (Test System: E.COLI, Strain/Indicator: WP2UVRA, Metabolic Activation: RAT LIVER S-9, PHENOBARBITAL AND BETA-NAPHTHOFLAVONE, Method: PREINCUBATION): inactive; negative

Compound: O=C(O)C(Br)Br
- mutagenic call (End Point: Ames Salmonella typhimurium, Test System: TA98, Metabolic Activation: Hamster, liver, S-9, Aroclor 1254, Method: Preincubation): inactive; negative
- mutagenic call (End Point: Ames Salmonella typhimurium, Test System: TA100, Metabolic Activation: Hamster, liver, S-9, Aroclor 1254, Method: Preincubation): active; positive
- mutagenic call (End Point: In vivo micronucleus, Test System: Peripheral blood erythrocytes, Species: Mouse, Strain/Sex: B6C3F1/Female, Route: Oral (drinking water)): inactive; negative (for increased frequencies of micronucleated normochromatic erythrocyte
- mutagenic call (End Point: In vivo micronucleus, Test System: Peripheral blood erythrocytes, Species: Mouse, Strain/Sex: B6C3F1/Male, Route: Oral (drinking water)): inactive; positive (for increased frequencies of micronucleated normochromatic erythrocyte
- mutagenic call (Test System: AMES SALMONELLA TYPHIMURIUM, Strain/Indicator: RSJ100, Metabolic Activation: NONE, Method: PREINCUBATION): inactive; negative
- mutagenic call (Test System: AMES SALMONELLA TYPHIMURIUM, Strain/Indicator: RSJ100, Metabolic Activation: RAT LIVER S-9, Method: PREINCUBATION): inactive; negative
- mutagenic call (Test System: AMES SALMONELLA TYPHIMURIUM, Strain/Indicator: TA98, Metabolic Activation: RAT LIVER S-9, Method: PREINCUBATION): active; positive
- mutagenic call [5]: inactive; negative
- mutagenic call (Test System: AMES SALMONELLA TYPHIMURIUM, Strain/Indicator: TA100, Metabolic Activation: NONE, Method: FLUCTUATION TEST): active; positive
- mutagenic call (Test System: AMES SALMONELLA TYPHIMURIUM, Strain/Indicator: TA100, Metabolic Activation: NONE, Method: PREINCUBATION): active; positive
- mutagenic call (Test System: AMES SALMONELLA TYPHIMURIUM, Strain/Indicator: TA100, Metabolic Activation: RAT LIVER S-9, Method: PREINCUBATION): active; positive
- mutagenic call (Test System: AMES SALMONELLA TYPHIMURIUM, Strain/Indicator: TA100, Metabolic Activation: RAT, LIVER, S-9, AROCLOR 1254, Method: FLUCTUATION TEST): active; positive
- mutagenic call [6]: active; positive
- mutagenic call (Test System: Ames Salmonella typhimurium, Strain/Indicator: TA98, Metabolic Activation: None, Method: Preincubation): inactive; negative
- mutagenic call (Test System: Ames Salmonella typhimurium, Strain/Indicator: TA98, Metabolic Activation: Rat, liver, S-9, Aroclor 1254, Method: Preincubation): inactive; negative
- mutagenic call (Test System: Ames Salmonella typhimurium, Strain/Indicator: TA100, Metabolic Activation: None, Method: Preincubation): active; positive
- mutagenic call (Test System: Ames Salmonella typhimurium, Strain/Indicator: TA100, Metabolic Activation: Rat, liver, S-9, Aroclor 1254, Method: Preincubation): active; positive

Compound: CC(=O)Nc1ccc(/C=C/C(=O)c2ccccc2)cc1
- mutagenic call [1]: inactive; negative
- mutagenic call [2]: active; positive
- mutagenic call [3]: active; positive
- mutagenic call [4]: active; positive
